According to patent publication US9907797B2, “Combination therapies for overcoming resistance to mitotic agents during chemotherapy” (EMORY UNIVERSITY, priority 2014, dated 2018):
Peptide text beside a SMILES is read from it. * marks the point of attachment. Cbz = O=C(OCc1ccccc1)*

Experiments:
Assay type in all cases: cell-based
[1] = target: T1, PARP1-CHFR interaction (Homo sapiens, UniProt Q96EP1); test: Glutathione affinity pull-down of GST tagged PARP1 with CHFR in HEK293 cells; settings: 10 uM, 16 hours
T1 construct: expressed in transfected cells; CHFR endogenous
T1 sequence (Q96EP1 1-664): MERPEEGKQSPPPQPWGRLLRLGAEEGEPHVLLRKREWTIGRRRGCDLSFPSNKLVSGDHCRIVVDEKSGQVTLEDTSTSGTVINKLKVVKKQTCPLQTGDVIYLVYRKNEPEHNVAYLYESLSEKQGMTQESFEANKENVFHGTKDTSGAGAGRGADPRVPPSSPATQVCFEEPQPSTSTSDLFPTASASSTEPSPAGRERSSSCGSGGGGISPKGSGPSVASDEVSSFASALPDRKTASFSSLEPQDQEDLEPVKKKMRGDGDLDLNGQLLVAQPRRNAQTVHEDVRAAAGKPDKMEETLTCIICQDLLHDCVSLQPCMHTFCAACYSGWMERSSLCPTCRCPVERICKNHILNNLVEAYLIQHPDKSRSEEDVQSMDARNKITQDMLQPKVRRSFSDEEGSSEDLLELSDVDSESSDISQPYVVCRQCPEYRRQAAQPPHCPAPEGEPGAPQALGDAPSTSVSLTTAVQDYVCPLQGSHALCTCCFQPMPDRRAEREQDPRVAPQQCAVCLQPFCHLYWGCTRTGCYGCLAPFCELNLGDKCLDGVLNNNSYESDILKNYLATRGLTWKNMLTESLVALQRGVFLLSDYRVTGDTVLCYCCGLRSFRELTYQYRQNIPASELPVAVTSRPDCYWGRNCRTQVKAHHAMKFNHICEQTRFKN
Method: In an attempt to generate possible lead compounds for the pharmacologic inhibition of the CHFR-PARP1 interaction, a high throughput computational screen of 5,256,508 chemical structures in the MCULE database of purchasable compounds using the AutoDockVina algorithm against the published crystal structure of the CHFR-PBZ domain was performed. The 10 most promising ‘hits’ based on Autodock Vina docking scores (<−9.7) were selected for further characterization. Commercially available compounds were tested for their impact on nuclear CHFR levels (FIG. 3A). Several compounds, including ‘A2’, ‘A3’, ‘A4’ and ‘A6’ decreased CHFR levels assayed by western blotting of whole cell extracts. The impact of the above referenced compounds on the PARP1/CHFR interaction were evaluated. HEK293 cells were transfected with GST tagged PARP1 and the interaction with CHFR determined in pull down assays for those 4 compounds. […] In contrast to treatment with ABT-888, ‘A3’ completely disrupted the interaction between GST-tagged PARP-1 and CHFR (FIG. 3B). […] Since it is possible that the co-immunoprecipitation between PARP-1 and CHFR after ‘A3’ treatment was negative due to the fact that CHFR was degraded, the experiment was repeated after transfection with the Ring-domain deleted ΔR-CHFR construct, which maintained both stable CHFR and PARP1 levels even after treatment with ‘A3’. […]

[2] = tested on: CHFR; test: wt-CHFR and CHFR-PBZ* protein levels in transfected Calu-6 cells
Excerpt: To determine if disruption of the CHFR-PARP1 interaction forces CHFR degradation by auto-ubiquitination and subsequent proteasomal degradation, wild-type and the CHFR-PBZ mutant were expressed in the presence and absence of the proteasome inhibitor MG-132 (FIG. 1H) or after the additional deletion of the RING domain (FIG. 1I) in Calu-6 cells.

[3] = tested on: A549, EKVX, H596, H522, Hop-62, H460 and H2023; test: Cytotoxicity assays with docetaxel and ABT-888 in seven lung cancer cell lines
Method: Hypothesizing that PARP-inhibition could induce synergistic cytotoxicity in CHFR expressing lung cancer cell lines, cytotoxicity assays were performed in seven lung cancer cell lines (A549, EKVX, H596, H522, Hop-62, H460 and H2023) using docetaxel and the PARP-inhibitor ABT-888 either alone or in combination.

[4] = tested on: Calu-6 NSCLC cells; test: XTT assay with docetaxel in transfected Calu-6 cells; settings: docetaxel 72 hours, Calu-6 with wt-CHFR vs empty vector and CHFR-PBZ*, p<0.05
Method: The effect of Docetaxel after 72 hours was established by XTT assay.
In Hela cells, full length, but not PBZ-mutant CHFR has similar cell cycle effects. To determine the functional relevance of the PBZ domain on taxane resistance in NSCLC CHFR deficient CALU-6 cells were transfected with either with full-length CHFR (pDEST40-wt-CHFR) or PBZ mutant CHFR (pDEST40-CHFR-PBZ*).

[5] = tested on: CHFR-PARP1 interaction; test: Interaction between GST-tagged PARP1 and CHFR in synchronized cells; settings: microtubular damage induced with docetaxel, G2/M phase
Method: (§1) The functional significance of the interaction between CHFR and PARP1 in antephase checkpoint control and taxane sensitivity was evaluated. HEK293 cells were transfected with a GST-tagged PARP1, synchronized with aphidocholin, and the interaction between GST-tagged PARP1 and CHFR was analyzed at various stages of the cell cycle (FIG. 2A, 2B). […] To determine the effect on taxane sensitivity, XTT assays were performed in A549 cells stably transfected with either shRNAs specifically targeting CHFR or PARP1 or control shRNAs (scrambled or luciferase targeting respectively).

[6] = tested on: A549 cells; test: XTT assays with docetaxel in A549 cells stably transfected with shRNAs
Method: as §1

C[C@]1(c2nc3c(C(N)=O)cccc3[nH]2)CCCN1 [ABT-888]
interaction between PARP1 and CHFR [1]: nor did it disrupt the interaction between CHFR and PARP-1 | CHFR protein levels ([2]; Calu-6 cells, wt-CHFR or CHFR-PBZ*): did not result in altered CHFR protein levels | cytostasis, docetaxel combined with ABT-888 ([3]; ABT-888 20 uM): did not lead to enhanced cytostasis | synergy of docetaxel and ABT-888, cytotoxicity ([3]; seven lung cancer cell lines, alone or in combination): Synergy was not observed in any of the cell lines

CC(C)C[C@@H](C=O)NC(=O)[C@H](CC(C)C)NC(=O)[C@H](CC(C)C)NC(=O)OCc1ccccc1 [MG-132] (Cbz-Leu-Leu-Leu-aldehyde)
CHFR-PBZ* protein levels ([2]; Calu-6 cells stably transfected with CHFR-PBZ*, proteasomal inhibition): increases CHFR-PBZ* protein levels

CC(=O)O[C@@]12CO[C@@H]1C[C@H](O)[C@@]1(C)C(=O)[C@H](O)C3=C(C)[C@@H](OC(=O)[C@H](O)[C@@H](NC(=O)OC(C)(C)C)c4ccccc4)C[C@@](O)([C@@H](OC(=O)c4ccccc4)[C@H]21)C3(C)C [docetaxel]
taxane resistance (XTT) [4]: Stable transfection of wt-CHFR increases taxane resistance | interaction between GST-tagged PARP1 and CHFR [5]: further enhances this interaction | sensitivity to docetaxel (XTT) ([6]; CHFR-deficient A549 cells relative to scrambled control): increased sensitivity to docetaxel | sensitivity to docetaxel (XTT) ([6]; PARP1 deficient A549 cells relative to control shRNA): also showed increased sensitivity to docetaxel
